Assays:
[1] = Air sensitivity; type: physicochemical
Source text: While previous work reported in the literature performed HPLC under aerobic conditions, (see for example Funasaka et al. 1995) these studies determined that anaerobic controls better preserved the fraction of Gd@C82 in solution. […] The fraction containing the Gd@C82 was identified using MS. The solubility of fullerenes in o-xylene is about three times that of toluene and this greatly increases the ratio of fullerenes in solution to those retained on the stationary phase. Therefore, the capacity or amount of fullerenes purified per injection was very large. Each injection contained 2 ml of saturated fullerene o-xylene solution (about 30 mg of fullerenes).

[2] = test system: human keratinocytes and fibroiblasts; conditions: cited from earlier work
[3] = test system: Sprague-Dawley rats; assay: γ-camera imaging study; type: in vivo; conditions: IP
Description: The biodistribution in mice of hydroxylated lanthanide-C82 encapsulates is under current investigation. The results presented here are regarded as preliminary as the sample is still small. Studies continue under a NIH Phase I grant. The neutron irradiated samples, along with a ^166Ho^3+ control sample, were used to perform a γ-camera imaging study on four 300 g Sprague-Dawley rats. Two rats were injected intraperitoneally (IP) with 54 and 18 μCi of ^166Ho activity from samples containing irradiated Ho-metallofullerois. Two control studies were performed by IP administration of approximately 660 μCi of ^166Ho^3+ in a 1% sodium citrate buffer. The anesthetized rats were scanned side-by-side on a single stage with a γ-camera starting 1 hour after injection and periodically thereafter over the ensuing 48 hours.

[4] = test system: anti-fullerene antibodies; assay: ELISA competitive inhibition of antibody binding to 1-RSA; parameters: species or system BALB/c mice
Description: After a total of three immunizations at 3-week intervals, confirmation of an immune response was determined by direct ELISA in which polystyrene plates (Corning) were coated with the 1-RSA conjugate (0.5 mg/ml in 0.1 M NaHCO3, pH 9), and binding of preimmune and immune sera were determined by standard procedures. Development was with horseradish peroxidase-labeled goat anti-mouse IgG (Sigma), which tested negative for crossreaction with an IgM preparation. The substrate used was o-phenylenediamine.
(§1) Specificity of the resp)onse was determined by two procedures: double diffusion in agar (22) and competitive inhibition, as determined by ELISA using RSA and BSA conjugates of the fullerenes, as well as the oligo lysine derivatives. The fullerenes themselves were not soluble enough in aqueous solutions.
The adenosine conjugate had been synthesized using the same strategy used for the fullerenes, i.e., linkage to the epsilon amino groups of the lysines via an N-hydroxysuccinimide ester derivative.

[5] = test system: anti-fullerene antibodies; assay: Double diffusion in agar; type: binding, BALB/c mice
Description: Immunization Procedure and Detection of Antibodies. BALB/c mice were immunized i.p. with 1-TG in complete Freund's adjuvant for the primary immunization and incomplete adjuvant for subsequent immunizations.
as §1
Specificity of the response was determined by two procedures: Double diffusion in agar and competitive inhibition, as determined by ELISA using RSA and BSA conjugates of the fullerenes, as well as the oligo lysine derivatives. The fullerenes themselves were not soluble enough in aqueous solutions.

## Gd@C82(OH)x
[1]
  air sensitivity: does not appear to be air sensitive

## c12c3c4c5c1c1c6c7c2c2c8c3c3c9c4c4c%10c5c5c1c1c6c6c%11c7c2c2c7c8c3c3c8c9c4c4c9c%10c5c5c1c1c6c6c%11c2c2c7c3c3c8c4c4c9c5c1c1c6c2c3c41 [Compound C60, fullerene-C60]
[2]
  effect on rate of thymidine uptake: no effect

## [166Ho+3] [^166Ho^3+]
[3]; after 24 hours
  excretion of 166Ho activity: essentially all ^166Ho activity had been excreted
[3]; commencing 1 hour post-injection
  urinary clearance: rapid ^166Ho^3+ urinary clearance

## Rabbit Serum Albumin [RSA]
[4]
  inhibition of antibody binding to 1-RSA: No inhibition

## bovine thyroglobulin [TG]
[4]
  inhibition of antibody binding to 1-RSA: No inhibition
[5]; TG solution diluted 5-fold
  precipitation with immune serum in double diffusion in agar: a line of precipitation was seen
[5]; serum of mice immunized with 1-TG
  precipitation with immune serum in double diffusion in agar: no visible precipitate
